The results in this text go back to US6936585B2, “Corticotropin releasing factor 2 receptor agonists” (priority 2002, dated 2005).

Ends that are not written are not given here. Peptide text beside a SMILES is read from it. Some results are limits rather than exact numbers.

As a reminder, the Emax is the maximal effect, on the per cent scale that the assay sets. As usually defined, the EC50 is the concentration at which the effect is half-maximal.

One experiment has as its target T1, CRF2R (Homo sapiens, UniProt Q13324).
T1 sequence (Q13324 1-411): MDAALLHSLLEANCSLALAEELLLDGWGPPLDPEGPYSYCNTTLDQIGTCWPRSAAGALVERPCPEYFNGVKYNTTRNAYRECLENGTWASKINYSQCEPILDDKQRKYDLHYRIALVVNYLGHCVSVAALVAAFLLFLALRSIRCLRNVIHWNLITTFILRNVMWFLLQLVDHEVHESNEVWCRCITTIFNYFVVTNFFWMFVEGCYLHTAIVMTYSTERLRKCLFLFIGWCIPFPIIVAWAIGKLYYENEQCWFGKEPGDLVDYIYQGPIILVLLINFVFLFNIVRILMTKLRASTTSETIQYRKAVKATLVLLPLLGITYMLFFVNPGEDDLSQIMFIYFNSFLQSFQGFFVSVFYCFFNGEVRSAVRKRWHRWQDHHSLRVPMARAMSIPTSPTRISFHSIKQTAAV
The experiment is described as follows: CRF2R agonist activation (EC50 / Emax), called comparative CRF binding. The format is cell-based. To be noted: read-out: CRF2R Emax. The text has this:
(§1) The pharmacological activity and selectivity of the peptides of present invention can be determined using published test procedures. See, e.g, U.S. patent application Ser. No. 09/799,978 (now issued U.S. Pat. No. 6,670,140). Because CRF2R and CRF1R are homologous proteins, it is expected that a certain proportion of agonists for CRF2R will also function as agonists of CRF1R. As discussed above, activation of CRF1R induces activation of the HPA axis since increased corticosteroid production leads to skeletal muscle atrophy. In most cases in which an increase in muscle mass or function is desired, it is not desirable to activate the HPA axis.
(§2) Cell-based assays include the steps of contacting cells which express CRF1R or CRF2R with a peptide of the present invention or control and measuring activation of the CRFR by measuring the expression or activity of components of the CRFR signal transduction pathways.
(§3) For example, after contact with a peptide of the present invention, lysates of the cells can be prepared and assayed for induction of cAMP. cAMP is induced in response to Gαs activation. Because Gαs is activated by receptors other than CRFR and because a test peptide may be exerting its effect through CRFRs or by another mechanism, two control comparisons are relevant for determining whether the peptide increases levels of cAMP via activation of a CRFR. One control compares the cAMP level of cells contacted with the peptide and the cAMP level of cells contacted with a control compound (i.e., the vehicle in which the peptide is dissolved).
(§4) In one example, cAMP induction is measured with the use of DNA constructs containing the cAMP responsive element linked to any of a variety of reporter genes can be introduced into cells expressing CRFRs. Such reporter genes include, but are not limited to, chloramphenicol acetyltransferase (CAT), luciferase, glucuronide synthetase, growth hormone, fluorescent proteins (e.g., Green Fluorescent Protein), or alkaline phosphatase. Following exposure of the cells to the peptide, the level of reporter gene expression can be quantitated to determine the peptide's ability to increase cAMP levels and thus determine the peptide's ability to activate the CRFR.
(§5) In addition to using cells expressing full length CRFRs, cells can be engineered which express CRFRs containing the ligand binding domain of the receptor coupled to, or physically modified to contain, reporter elements or to interact with signaling proteins. For example, a wild type CRFR or CRFR fragment can be fused to a G-protein resulting in activation of the fused G-protein upon agonist binding to the CRFR portion of the fusion protein. […] In addition, alternative pathways for induction of the CRE reporter could be eliminated to reduce basal levels.

The target in another experiment is T2, CRF1R (Homo sapiens, UniProt P34998).
T2 sequence (P34998 24-415): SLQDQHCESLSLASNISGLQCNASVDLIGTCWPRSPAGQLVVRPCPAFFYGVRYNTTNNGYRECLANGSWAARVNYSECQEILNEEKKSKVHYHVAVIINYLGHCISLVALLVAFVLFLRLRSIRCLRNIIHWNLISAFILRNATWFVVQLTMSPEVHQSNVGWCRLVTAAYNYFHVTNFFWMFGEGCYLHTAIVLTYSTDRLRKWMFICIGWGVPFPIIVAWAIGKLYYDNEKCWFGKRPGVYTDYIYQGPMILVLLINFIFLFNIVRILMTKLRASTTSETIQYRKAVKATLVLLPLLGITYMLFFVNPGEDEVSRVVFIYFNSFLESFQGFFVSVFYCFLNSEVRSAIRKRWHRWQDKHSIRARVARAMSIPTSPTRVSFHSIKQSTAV
The experiment is described as follows: CRF1R agonist activation (EC50 / Emax), called comparative CRF binding. It is filed as cell-based. To be noted: for Emax: read-out: CRF1R Emax; for EC50: read-out: CRF1R EC50.
Source text: as §1, §2, §3, §4, §5

Regarding `CC[C@H](C)[C@H](N)C(=O)N[C@H](C(=O)N[C@@H](CC(C)C)C(=O)N[C@@H](CO)C(=O)N[C@@H](CC(C)C)C(=O)N[C@@H](CC(=O)O)C(=O)N[C@H](C(=O)N1CCC[C@H]1C(=O)N[C@H](C(=O)NCC(=O)N[C@@H](CC(C)C)C(=O)N[C@@H](CC(C)C)C(=O)N[C@@H](CCC(N)=O)C(=O)N[C@@H](CCC(=O)O)C(=O)N[C@@H](CC(C)C)C(=O)N[C@@H](CC(C)C)C(=O)N[C@@H](CCC(=O)O)C(=O)N[C@@H](CCSC)C(=O)N[C@@H](C)C(=O)N[C@@H](CCCNC(=N)N)C(=O)N[C@@H](C)C(=O)N[C@@H](CCC(=O)O)C(=O)N[C@@H](CCC(N)=O)C(=O)N[C@@H](CC(C)C)C(=O)N[C@@H](C)C(=O)N[C@@H](CCC(N)=O)C(=O)N[C@@H](CCC(N)=O)C(=O)N[C@@H](C)C(=O)N[C@@H](Cc1c[nH]cn1)C(=O)N[C@@H](CO)C(=O)N[C@@H](CC(N)=O)C(=O)N[C@@H](CCCNC(=N)N)C(=O)N[C@@H](CCCCN)C(=O)N[C@@H](CC(C)C)C(=O)N[C@@H](CCSC)C(=O)N[C@@H](CCC(=O)O)C(=O)N[C@H](C(=O)N[C@H](C(N)=O)[C@@H](C)CC)[C@@H](C)CC)[C@@H](C)CC)C(C)C)C(C)C` [compound 1] (H-IVLSLDVPIGLLQELLEMARAEQLAQQAHSNRKLMEII-NH2; N-terminus assumed), the Emax at CRF2R was 100%; at CRF1R, 64%.

On to `CC[C@H](C)[C@H](N)C(=O)N[C@H](C(=O)N[C@@H](CC(C)C)C(=O)N[C@@H](CO)C(=O)N[C@@H](CC(C)C)C(=O)N[C@@H](CC(=O)O)C(=O)N[C@H](C(=O)N1CCC[C@H]1C(=O)N[C@H](C(=O)NCC(=O)N[C@@H](CC(C)C)C(=O)N[C@@H](CC(C)C)C(=O)N[C@@H](CCC(N)=O)C(=O)N[C@H](C(=O)N[C@@H](CC(C)C)C(=O)N[C@@H](CC(C)C)C(=O)N[C@@H](CCC(=O)O)C(=O)N[C@@H](CCC(N)=O)C(=O)N[C@@H](CCC(=O)O)C(=O)N[C@@H](CCCCN)C(=O)N[C@@H](C)C(=O)N[C@@H](CCCNC(=N)N)C(=O)N[C@@H](C)C(=O)N[C@@H](C)C(=O)N[C@@H](CCCNC(=N)N)C(=O)N[C@@H](CCC(=O)O)C(=O)N[C@@H](CCC(N)=O)C(=O)N[C@@H](C)C(=O)N[C@H](C(=O)N[C@H](C(=O)N[C@@H](CC(N)=O)C(=O)N[C@@H](C)C(=O)N[C@@H](CCCNC(=N)N)C(=O)N[C@H](C(=O)N[C@@H](CC(C)C)C(=O)N[C@@H](C)C(=O)N[C@@H](CCCNC(=N)N)C(=O)N[C@H](C(N)=O)C(C)C)[C@@H](C)CC)[C@@H](C)O)[C@@H](C)O)[C@@H](C)CC)[C@@H](C)CC)C(C)C)C(C)C` [compound 107] (H-IVLSLDVPIGLLQILLEQEKARAAREQATTNARILARV-NH2; N-terminus assumed), for which the maximum response (Emax) on CRF2R turned out to be 87.9%.

`CC[C@H](C)[C@H](N)C(=O)N[C@H](C(=O)N[C@@H](CC(C)C)C(=O)N[C@@H](CO)C(=O)N[C@@H](CC(C)C)C(=O)N[C@@H](CC(=O)O)C(=O)N[C@H](C(=O)N1CCC[C@H]1C(=O)N[C@H](C(=O)NCC(=O)N[C@@H](CC(C)C)C(=O)N[C@@H](CC(C)C)C(=O)N[C@@H](CCC(N)=O)C(=O)N[C@H](C(=O)N[C@@H](CC(C)C)C(=O)N[C@@H](CC(C)C)C(=O)N[C@@H](CCC(=O)O)C(=O)N[C@@H](CCC(N)=O)C(=O)N[C@@H](C)C(=O)N[C@@H](CCCCN)C(=O)N[C@@H](C)C(=O)N[C@@H](CCCNC(=N)N)C(=O)N[C@@H](C)C(=O)N[C@@H](C)C(=O)N[C@@H](CCCNC(=N)N)C(=O)N[C@@H](CCC(=O)O)C(=O)N[C@@H](CCC(N)=O)C(=O)N[C@@H](C)C(=O)N[C@H](C(=O)N[C@H](C(=O)N[C@@H](CC(N)=O)C(=O)N[C@@H](C)C(=O)N[C@@H](CCCNC(=N)N)C(=O)N[C@H](C(=O)N[C@@H](CC(C)C)C(=O)N[C@@H](C)C(=O)N[C@@H](CCCNC(=N)N)C(=O)N[C@H](C(N)=O)C(C)C)[C@@H](C)CC)[C@@H](C)O)[C@@H](C)O)[C@@H](C)CC)[C@@H](C)CC)C(C)C)C(C)C` [compound 127] (H-IVLSLDVPIGLLQILLEQAKARAAREQATTNARILARV-NH2; N-terminus assumed): at CRF1R, the EC50 was greater than 0.1 µM.

For `CC[C@H](C)[C@H](N)C(=O)N[C@H](C(=O)N[C@@H](CC(C)C)C(=O)N[C@@H](CO)C(=O)N[C@@H](CC(C)C)C(=O)N[C@@H](CC(=O)O)C(=O)N[C@H](C(=O)N1CCC[C@H]1C(=O)N[C@H](C(=O)NCC(=O)N[C@@H](CC(C)C)C(=O)N[C@@H](CC(C)C)C(=O)N[C@@H](CCC(N)=O)C(=O)N[C@H](C(=O)N[C@@H](CC(C)C)C(=O)N[C@@H](CC(C)C)C(=O)N[C@@H](CCC(=O)O)C(=O)N[C@@H](CCC(N)=O)C(=O)N[C@H](C(=O)N[C@@H](CCCCN)C(=O)N[C@@H](C)C(=O)N[C@@H](CCCNC(=N)N)C(=O)N[C@@H](C)C(=O)N[C@@H](C)C(=O)N[C@@H](CCCNC(=N)N)C(=O)N[C@@H](CCC(=O)O)C(=O)N[C@@H](CCC(N)=O)C(=O)N[C@@H](C)C(=O)N[C@H](C(=O)N[C@H](C(=O)N[C@@H](CC(N)=O)C(=O)N[C@@H](C)C(=O)N[C@@H](CCCNC(=N)N)C(=O)N[C@H](C(=O)N[C@@H](CC(C)C)C(=O)N[C@@H](C)C(=O)N[C@@H](CCCNC(=N)N)C(=O)N[C@H](C(N)=O)C(C)C)[C@@H](C)CC)[C@@H](C)O)[C@@H](C)O)[C@@H](C)O)[C@@H](C)CC)[C@@H](C)CC)C(C)C)C(C)C` [compound 129] (H-IVLSLDVPIGLLQILLEQTKARAAREQATTNARILARV-NH2; N-terminus assumed), on CRF1R, the EC50 is greater than 0.1 µM.

As for `CC[C@H](C)[C@H](N)C(=O)N[C@H](C(=O)N[C@@H](CC(C)C)C(=O)N[C@@H](CO)C(=O)N[C@@H](CC(C)C)C(=O)N[C@@H](CC(=O)O)C(=O)N[C@H](C(=O)N1CCC[C@H]1C(=O)N[C@H](C(=O)NCC(=O)N[C@@H](CC(C)C)C(=O)N[C@@H](CC(C)C)C(=O)N[C@@H](CCC(N)=O)C(=O)N[C@H](C(=O)N[C@@H](CC(C)C)C(=O)N[C@@H](CC(C)C)C(=O)N[C@@H](CCC(=O)O)C(=O)N[C@@H](CCC(N)=O)C(=O)N[C@@H](C)C(=O)N[C@@H](CCCNC(=N)N)C(=O)N[C@@H](C)C(=O)N[C@@H](CCCNC(=N)N)C(=O)N[C@@H](C)C(=O)N[C@@H](C)C(=O)N[C@@H](CCCNC(=N)N)C(=O)N[C@@H](CCC(=O)O)C(=O)N[C@@H](CCC(N)=O)C(=O)N[C@@H](C)C(=O)N[C@H](C(=O)N[C@H](C(=O)N[C@@H](CC(N)=O)C(=O)N[C@@H](C)C(=O)N[C@@H](CCCNC(=N)N)C(=O)N[C@H](C(=O)N[C@@H](CC(C)C)C(=O)N[C@@H](C)C(=O)N[C@@H](CCCNC(=N)N)C(=O)N[C@H](C(=O)N[C@@H](CCSC)C(N)=O)C(C)C)[C@@H](C)CC)[C@@H](C)O)[C@@H](C)O)[C@@H](C)CC)[C@@H](C)CC)C(C)C)C(C)C` [compound 356] (H-IVLSLDVPIGLLQILLEQARARAAREQATTNARILARVM-NH2), on CRF1R, the maximal effect (Emax) is 9%.

Take “SQEPPISLDLPLELLREVLEMTKADQLAQQAHSNRKLLDIA-NH2 [compound 89]”: at CRF2R, the Emax came to 12.7%.
